The text below walks through data of PubChem BioAssay (NCI).

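Method: 48-hour compound exposure of cells in 96-well plates, five concentrations, linear interpolation of endpoints. GI50 marks 50% less growth. Definition used: TGI = concentration required for complete inhibition of growth.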

Common to all, as to experiment: NCI tumour cell line growth inhibition, 48 h
Assay [1] has as its system COLO 205 colon.
In assay [2] the test system is NCI-H226 lung.
Assay [3] relates to UACC-62 melanoma.
In assay [4] the test system is UACC-257 melanoma.
Assay [5] concerns SK-OV-3 ovarian.
The subject of assay [6] is NCI-H460 lung.
Assay [7] deals with MALME-3M melanoma.
Assay [8] relates to HCC-2998 colon.
For assay [9], the system named is OVCAR-5 ovarian.
In assay [10] the test system is SR leukemia.

Take `O=C(O)c1cc(Cl)cc(NC(=O)C(Cl)Cl)c1Cl`: the TGI in assay [1], in [2], in [3], in assay [4], in [5] and in assay [6] was above 100 µM throughout. Further, the TGI in [7] and in assay [8] was above 100 µM throughout.
For `c1ccc2c(c1)CCCc1cc3ccccc3nc1-2`, the TGI in assay [1], in assay [3], in assay [4], in assay [5], in [9] and in assay [6] was above 100 µM each time. For the same compound, the TGI in assay [7] and in [8] was above 100 µM each time.
As for `CC[C@@]1(OC(=O)CN)C(=O)OCc2c1cc1n(c2=O)Cc2cc3cc(N)ccc3nc2-1`, the GI50 is 0.287 µM in assay [1]; below 0.0152 µM in [2]; below 0.01 µM in [3]; 0.0887 µM in [4]; 0.15 µM in [9]; below 0.01 µM in assay [6]. The GI50 in assay [7] is 0.195 µM. For the same compound, the TGI in assay [1] was determined as 2.22 µM; in assay [2], 0.388 µM; in assay [3], 0.0994 µM; in [4], 1.66 µM; in assay [7], 2.52 µM.
For the compound `O=C1[C@H]2C(c3ccccc3)=NN(C(=O)c3ccccc3)[C@H]2C(=O)N1c1ccccc1`, the TGI in assay [1], in assay [2], in [3], in [4], in assay [5] and in assay [6] was above 100 µM throughout. The compound further showed a TGI in assay [7] above 100 µM.
With `CO[C@H]1C=C[C@]23c4cc5c(cc4CN(CC2O)[C@@H]3C1)OCO5` (some centres not stated), the TGI in assay [1] was 17.9 µM; in assay [2] it was 61.3 µM; in assay [3], 19.6 µM; in [4], 42.8 µM; in [5] it was 3.3 µM; in [9], above 100 µM. In addition, the results for the TGI in [6], in assay [7] and in assay [8] were 36.1 µM, 20.4 µM and 16.7 µM, respectively.
On to `Cc1ccc(C2=Nc3c(N)ncnc3NC(c3cccc(Nc4ccnc5cc(C(F)(F)F)ccc45)c3)C2)cc1` (configuration not stated), for which the GI50 was 2.64 µM in [1]; 15.2 µM in assay [2]; 4.78 µM in assay [3]; 10.2 µM in assay [4]; 5.93 µM in [5]; 4.96 µM in assay [9]. In addition, the GI50 was 3.07 µM in [6], 3 µM in assay [7] and 2.59 µM in assay [8]. Besides, the TGI in [1] was 7.03 µM; in [2], above 100 µM; in [3], 26.8 µM; in assay [4], 84.9 µM; in assay [5], 51 µM; in assay [9], above 100 µM. The results for the TGI in assay [6], in assay [7] and in [8] were 10.5 µM, 23.1 µM and 10.5 µM, respectively.
Regarding `O=C(/C=C/N1CCN(c2cccc(C(F)(F)F)c2)CC1)c1ccc(Cl)cc1Cl`, the GI50 in assay [1] is 36.2 µM; in assay [10], 30.1 µM; in assay [3], 21.4 µM; in [4], 26.5 µM; in assay [5] it was 36.2 µM; in [9], 30.6 µM. For the same compound, the GI50 is 30.9 µM in [6] and 17.4 µM in [7]. The TGI in assay [1] was above 100 µM; in assay [10] it was 56 µM; in [3] it was 41.8 µM; in assay [4] it was 61 µM; in [5], 98.2 µM; in [9], above 100 µM. In addition, the TGI in assay [6] was found to be 97.3 µM; in assay [7], 36.2 µM.
For the compound `CC(C)OP(=O)(OC(C)C)C(N(C)C)P(=O)(OC(C)C)OC(C)C.[Cl][Sn]([Cl])([Cl])[c]1ccccc1`, the GI50 in [1] is 2.1 µM; in assay [2], 2.05 µM; in assay [4] it was 2.79 µM; in [5], 3.67 µM; in assay [9], 4.37 µM; in assay [6] it was 2.15 µM. The GI50 was 2.82 µM in [7] and 1.79 µM in assay [8]. Further, the TGI in assay [1] was determined as 12.5 µM; in assay [2] it was 9.69 µM; in assay [4], 8.95 µM; in [5], 17.3 µM; in assay [9] it was 49.1 µM; in assay [6], 29.6 µM. Also, the TGI in assay [7] amounted to 8.2 µM; in assay [8], 7.46 µM.
`COc1cc2c3c(c1OC)-c1ccccc1C(C(OC(C)=O)c1ccccc1)C3N(C)CC2` (configuration not stated): the TGI in assay [1], in assay [2], in assay [3], in assay [4], in [5] and in assay [9] was above 100 µM throughout. Besides, the TGI in assay [6], in [7] and in assay [8] was above 100 µM in each case.
Consider `COc1c(O)c(OC)c(C(=O)/C=C/c2ccccc2)c(O)c1OC`, for which the TGI in [1] is above 100 µM; in assay [2], above 100 µM; in assay [4], above 100 µM; in [5] it was above 100 µM; in [9] it was above 100 µM; in assay [6] it was 45.8 µM. The TGI in assay [7] and in assay [8] was above 100 µM each time.
On to `CC(=O)[CH-]C(=O)c1ccccc1.CC(=O)[CH-]C(=O)c1ccccc1.[O]=[U+2]=[O]`, for which the GI50 was 28.4 µM in [1]; 33.1 µM in assay [3]; 34.3 µM in [4]; 68.5 µM in assay [5]; above 100 µM in assay [9]; 36.9 µM in assay [6]. In addition, the GI50 in [7] was 21.8 µM; in assay [8], 18.7 µM. The TGI in assay [1] is 78.5 µM; in [3] it was above 100 µM; in assay [4], above 100 µM; in assay [5] it was above 100 µM; in [9], above 100 µM; in [6], above 100 µM. In addition, the TGI in [7] was 54.6 µM; in assay [8] it was 65.4 µM.
For the compound `Cc1nnc([S-])s1.[Au+].c1ccc([PH+](c2ccccc2)c2ccccc2)cc1`, the GI50 is 1.67 µM in [10]; 1.28 µM in [3]; 1.52 µM in assay [4]; 1.7 µM in assay [9]; 1.59 µM in assay [7]; 1.83 µM in assay [8]. Moreover, the TGI in assay [10] is above 100 µM; in assay [3] it was 2.56 µM; in assay [4], 3.09 µM; in assay [9], 3.13 µM; in assay [7], 3 µM; in [8] it was 3.36 µM.
As for `O=c1c2ccccc2nc(-c2ccccc2)n1NCC1(O)OCC(O)C(O)C1O` (configuration not stated), the TGI in assay [1], in [2], in [3], in assay [4], in assay [5] and in [9] was above 100 µM in each case. Also, the TGI in assay [6], in assay [7] and in assay [8] was above 100 µM throughout.
For the compound `CC1OC(=O)N(CCCC=C2SCCCS2)C1=O` (configuration not stated), the TGI in assay [1], in assay [2], in [3], in [4], in [5] and in assay [9] was above 100 µM each time. In addition, the TGI in [6] and in assay [7] was above 100 µM in each case.
Turning to `O=C(CCCCCCCCC(=O)OCC1OC(n2cnc3c(=O)[nH]cnc32)C(O)C1O)OCC1OC(n2cnc3c(=O)[nH]cnc32)C(O)C1O` (configuration not stated), the TGI in [1], in assay [2], in [3], in [4], in assay [5] and in assay [9] was above 100 µM in each case. The TGI in assay [6], in assay [7] and in assay [8] was above 100 µM in each case.
`CCN(CC)CCOc1ccc(/C=C2\C[C@H]3[C@@H]4CC=C5C[C@@H](OC(C)=O)CC[C@]5(C)[C@H]4CC[C@]3(C)[C@H]2OC(C)=O)cc1OC`: the GI50 in assay [1] is 19.6 µM; in assay [2], 11.3 µM; in assay [3], 11 µM; in assay [4], 10.6 µM; in assay [9], 9.3 µM; in assay [6], 7.6 µM. The GI50 in assay [8] is 5.34 µM. For the same compound, the TGI was above 50 µM in assay [1]; 31.7 µM in assay [2]; 24.8 µM in assay [3]; 20 µM in assay [4]; 18 µM in assay [9]; 34.6 µM in [6]. The TGI in [8] came out at 12.5 µM.
As for `O=C(OCc1ccccc1CN1CCOCC1)c1ccc(Br)cc1`, the TGI in assay [1], in [2], in [3], in assay [4], in assay [5] and in [9] was above 100 µM in each case. For the same compound, the TGI is above 100 µM in [6], 60.4 µM in assay [7] and above 100 µM in assay [8].
`CN1CCCC1c1cccnc1.O=C(O)c1ccccc1O.O=C([O-])c1ccccc1[OH2+].O=C([O-])c1ccccc1[OH2+].O=C([O-])c1ccccc1[OH2+].[Mn+2]` (configuration not stated): the GI50 in [1] is above 100 µM; in assay [2], above 100 µM; in assay [3] it was above 100 µM; in assay [4], 37.6 µM; in [5], above 100 µM; in assay [9], 63.5 µM. For the same compound, the GI50 in assay [7] was 17.8 µM. For the same compound, the TGI in [1], in assay [2], in assay [3], in [4], in assay [5] and in [9] was above 100 µM throughout. Further, the TGI in assay [7] was determined as 52.2 µM.
`Cc1nnc2n1N=C(CC(=O)c1ccc(O)cc1O)CN2N`: the TGI was 35.8 µM in assay [1]; above 100 µM in [3]; above 100 µM in [4]; above 100 µM in [5]; above 100 µM in assay [9]; above 100 µM in [6]. The TGI in assay [7] and in assay [8] was above 100 µM each time.
`COC(=O)/C(C#N)=C1\N=NNN1CCCN1CCOCC1`: the TGI in assay [1], in assay [2], in assay [3], in assay [4], in assay [5] and in assay [6] was above 100 µM in each case. In addition, the TGI in assay [7] and in [8] was above 100 µM in each case.
Regarding `S=C(Nc1ccccc1)Nc1[nH]c(=S)sc1-c1nc2ccccc2[nH]1`, the TGI is above 100 µM in [1]; 29.4 µM in assay [2]; above 100 µM in [3]; above 100 µM in [4]; 80.9 µM in [5]; above 100 µM in [9]. Also, the TGI in assay [7] and in assay [8] was above 100 µM in each case.
With `CC(C)c1ccc(/C=C(\NC(=O)c2ccccc2)c2nc3ccccc3[nH]2)cc1`, the TGI in assay [1], in assay [2], in assay [3], in [4], in assay [5] and in assay [9] was above 100 µM each time. For the same compound, the TGI in assay [6] and in assay [7] was above 100 µM in each case.
As for `O=C1c2cccnc2C(=O)c2c1c(C(=O)OCCCN1CCOCC1)c1ccccn21`, the GI50 in assay [1] is 0.0553 µM; in assay [10], below 0.01 µM; in [3], below 0.01 µM; in assay [4] it was 0.0182 µM; in [9], 0.0794 µM; in assay [7], 0.0125 µM. In addition, the GI50 in assay [8] is below 0.01 µM. Also, the TGI in assay [1] was 0.308 µM; in [10], above 100 µM; in assay [3] it was 0.0244 µM; in [4], 0.0758 µM; in [9] it was 4.73 µM; in assay [7] it was 1.71 µM. For the same compound, the TGI in [8] was determined as 3.15 µM.
`C/C(=N\NS(=O)(=O)c1ccc(C)cc1)c1ccc[n+]([O-])n1`: the TGI in [10], in [3], in assay [4], in [5], in [9] and in [6] was above 100 µM each time. In [8], this compound registered a TGI above 100 µM.
Consider `O=C1c2ccccc2-c2cc3ccccc3c(=O)n21`, for which the TGI in assay [1], in [10], in assay [3], in assay [4], in assay [9] and in [6] was above 100 µM in each case. This compound had a TGI in assay [8] above 100 µM.
